Measurements from patent publication US20220251096A1, “7,8-DIHYDRO-4H-PYRAZOLO[4,3-c]AZEPINE-6-ONE COMPOUNDS” (Eli Lilly and Company, priority 2019, published 2022).
Where “and” joins values, the source holds several entries; their conditions need not be identical. Equal values may be shown once.

Key:
Format in all cases: cell-based
[1] = system: GDM1; assay: Cell growth inhibition assay, GDM1; settings: Homo sapiens, GDM-1, 168 h; GDM1, 7 days
Experimental: Tumor cell lines are plated onto 96-well, black wall poly-D-lysine plates (Corning #354640), and incubated at 37° C., 5% CO2 for 18-24 hours. Compound was added at 1:3 dilutions in DMSO and cells were incubated at 37° C., 5% CO2 for 7 days. For adherent cell lines, cells were fixed and stained with propidium iodide and scanned on Acumen (channel 3 setting). For suspension cell lines, cell growth was monitored using Cell Titer-Glo reagent.

[2] = biological target: T1, EP300 (Homo sapiens, UniProt Q09472); assay: NanoBRET assay, EP300 bromodomain; parameters: NanoLuc-EP300-BD (Promega, 0.0002 μg); host or cells: HEK293; settings: NanoBRET in HEK293 cells, read after 4 hours incubation; mean ± Standard Deviation
T1 sequence (Q09472 1049-1156 limits assumed): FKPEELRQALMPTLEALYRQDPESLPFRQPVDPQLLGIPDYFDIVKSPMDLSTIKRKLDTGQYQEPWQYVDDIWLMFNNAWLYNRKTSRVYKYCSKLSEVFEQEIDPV
Experimental: HEK293 cells are seeded at 10×10^6 cells/16 mL in DMEM+10% FBS in a T-75 flask and left to attach for 4-6 hours. Transfection reagents are diluted in Opti-MEM media (no phenol red, no FBS) and 8% Fugene HD containing expression plasmids at a final concentration of the following: 1: Histone H3.3 HaloTag DNA (Promega, 0.02 μg)+NanoLuc-CREBBP-BD (Promega, 0.0002 μg); 2: Histone H3.3 HaloTag DNA (Promega, 0.02 μg)+NanoLuc-EP300-BD (Promega, 0.0002 μg); 3: Histone H4 HaloTag DNA (0.02 μg)+NanLuc-BRD4 Full Length (Promega, 0.0002 μg). The DNA/Fugene mixtures are left at RT for 10 minutes. Transfection mix (800 μL) is added per flask and immediately swirled to cover the cells. The plates are returned to the incubator for overnight transfection. The next day, HaloTag NanoBRET 618 ligand (20 μL/vial of 0.1 mM) is thawed at RT. […]
Compound is serially diluted and added to 96-well plates (2 10 mM, 3-fold dilutions, 100% DMSO). […] CREBBP/EP300 plates are read after 4 hours incubation and the BRD4 plates are read after overnight incubation. To develop plates for reading, allow all reagents to reach RT before use. […] The plate is shaken for 1 minute to mix and within 10 minutes, read on Envision plate reader with the following settings: Mirror: Luminescence; Emission filter: E600LP; 2nd emission filter: D460/50; Measurement height (mm): 6.5; Measurement time (s): 0.2 second.

[3] = system: 22Rv1 prostate cancer cells; assay: Cell proliferation assay in 22Rv1; settings: 22Rv1, 7 days
Experimental: The purpose of the following cell proliferation assay is to detect whether the compound of Example 2 and combinations thereof have an effect on cell proliferation.
22Rv1 (purchased from ATCC CRL-2505) cells are seeded at a density of 1,000 cells per well in RMPI 10% FBS (20 μL volume) into a clear bottom 384-well cell culture plate. The plate is incubated at 37° C. and 5% CO2. The cells are dosed the following day with the compound of Example 2 and the compound of Example 2 in combination with the known anti-cancer therapeutics found in the table below. An Echo 555 acoustic dispenser is used to prepare serial dilutions (1:3) of the compound of Example 2, and combinations thereof, in concentrations ranging from 60 μM to 0.003 μM. The cells are then dosed by addition of 5 μL from the serial dilution plate to the cell plate, producing a final DMSO concentration of 0.2% with a final concentration dose ranging from 20 μM to 0.001 μM for the compound of Example 2 and combinations thereof.
Media containing 0.2% DMSO is used for the maximum point and 2 μM staurosporine in the growth media containing 0.2% DMSO is used for the minimum point. After dosing with the compound of Example 2 and combinations thereof, the cell plates are incubated at 37° C. and 5% CO2. Seven days after test compound addition, plates are removed from the incubator and cold EtOH (96%, 65 μL) is added to each well. After 30 minutes, the media is removed and RNase (20 μL, 50 μg/mL) (Sigma) and a 1:1000 propidium iodide dilution in PBS are added to each well. The plates are sealed and incubated for 1 hour at room temperature and preserved from light. Plates are then scanned with ACUMEN EXPLORER™ [Laser-scanning fluorescence microplate cytometer manufactured by TTP LABTECH LTD]. The number of 22Rv1 cells is evaluated through an estimated number of cells, calculated through the area parameter (ratio of total area of the total cells population), a designated range of peak intensity of FL-3 (PI), and the mean area of the single cell population defined by perimeter. Data is then processed through an NGR screening tool. Data is analyzed using a 4-parameter nonlinear logistic equation (four-parameter logistic concentration-response curve): Y=bot+[(top−bot)/1+(x/IC50)slope] where Y=% inhibition, X=concentration yielding y % inhibition, “bot”=minimum value of y attained by curve, “top”=maximum value of y attained by curve, and “slope”=steepness of curve at IC50. % Inh=[(median Max−x/median Max−median Min)]·100.

CCNC(=O)c1ccc(-c2cc3cccc(-c4nn(C)c5c4CN(C)C(=O)CC5)c3cn2)cn1 [Example 2, 5-[8-(1,5-Dimethyl-6-oxo-7,8-dihydro-4H-pyrazolo[4,3-c]azepin-3-yl)-3-isoquinolyl]-N-ethyl-pyridine-2-carboxamide]
IC50 [1]: 280 nM | IC50 [2]: 26.1 ± 16.5 nM | Cell Proliferation % Inhibition ([3]; single agent at 120 nM, 0.12 µM): 9.62% | Cell Proliferation % Inhibition ([3]; single agent at 370 nM, 0.37 µM): 18.68% and 31.53% | inhibition at 0.12 µM ([3]; Homo sapiens, 22Rv1, 168 h, single agent at 120 nM): 17.4% | inhibition at 0.37 µM ([3]; Homo sapiens, 22Rv1, 168 h, single agent at 370 nM): 35.4% | inhibition at 0.74 µM ([3]; Homo sapiens, 22Rv1, 168 h, single agent at 740 nM): 12.2% | inhibition at 2.2 µM ([3]; Homo sapiens, 22Rv1, 168 h, single agent at 2.2 μM): 19.3% | inhibition at 3.3 µM ([3]; Homo sapiens, 22Rv1, 168 h, single agent at 3.3 μM): 46.3%
